Laboratory results reported in article PMC10619143, “Development of a covalent cereblon-based PROTAC employing a fluorosulfate warhead” (RSC Chemical Biology, 2023).

Target: T1, cereblon (CRBN) (Homo sapiens, UniProt Q96SW2)
T1 construct: CRBN-DDB1ΔB complex; with DDB1ΔB
Assay: intact protein MS covalent labelling and MS/MS site mapping (also cellular NanoBRET IC50 […] at […] h)
Assay type: binding

T1 sequence (Q16531 2-1140): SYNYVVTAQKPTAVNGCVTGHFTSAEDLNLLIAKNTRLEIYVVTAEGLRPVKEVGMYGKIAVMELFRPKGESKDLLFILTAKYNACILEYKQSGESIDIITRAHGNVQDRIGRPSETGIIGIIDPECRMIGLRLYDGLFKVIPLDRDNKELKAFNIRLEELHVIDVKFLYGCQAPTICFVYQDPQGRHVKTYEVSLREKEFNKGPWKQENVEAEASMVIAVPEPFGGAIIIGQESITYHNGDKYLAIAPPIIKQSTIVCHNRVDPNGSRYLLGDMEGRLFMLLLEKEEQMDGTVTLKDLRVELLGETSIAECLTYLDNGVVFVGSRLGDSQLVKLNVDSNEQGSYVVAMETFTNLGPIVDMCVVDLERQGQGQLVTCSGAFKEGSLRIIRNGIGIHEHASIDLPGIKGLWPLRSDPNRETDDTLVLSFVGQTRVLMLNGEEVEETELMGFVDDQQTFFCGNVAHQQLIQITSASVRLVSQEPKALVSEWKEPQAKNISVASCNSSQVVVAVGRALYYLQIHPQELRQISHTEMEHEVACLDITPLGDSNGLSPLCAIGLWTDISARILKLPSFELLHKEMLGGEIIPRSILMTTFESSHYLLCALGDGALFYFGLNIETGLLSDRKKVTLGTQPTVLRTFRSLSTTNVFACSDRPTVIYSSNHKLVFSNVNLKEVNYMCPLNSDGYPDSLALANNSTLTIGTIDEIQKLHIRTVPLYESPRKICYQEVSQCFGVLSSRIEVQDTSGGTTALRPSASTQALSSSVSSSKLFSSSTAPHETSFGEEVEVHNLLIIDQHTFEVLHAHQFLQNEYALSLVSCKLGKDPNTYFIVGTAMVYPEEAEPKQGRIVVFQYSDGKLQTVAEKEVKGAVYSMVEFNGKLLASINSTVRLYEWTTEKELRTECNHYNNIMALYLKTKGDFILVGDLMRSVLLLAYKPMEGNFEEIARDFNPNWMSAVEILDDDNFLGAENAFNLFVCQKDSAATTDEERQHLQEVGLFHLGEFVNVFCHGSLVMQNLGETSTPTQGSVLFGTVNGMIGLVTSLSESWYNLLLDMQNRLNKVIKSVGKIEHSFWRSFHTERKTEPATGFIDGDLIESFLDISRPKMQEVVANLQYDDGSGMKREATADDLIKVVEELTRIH
T1 sequence (Q96SW2 whole entry): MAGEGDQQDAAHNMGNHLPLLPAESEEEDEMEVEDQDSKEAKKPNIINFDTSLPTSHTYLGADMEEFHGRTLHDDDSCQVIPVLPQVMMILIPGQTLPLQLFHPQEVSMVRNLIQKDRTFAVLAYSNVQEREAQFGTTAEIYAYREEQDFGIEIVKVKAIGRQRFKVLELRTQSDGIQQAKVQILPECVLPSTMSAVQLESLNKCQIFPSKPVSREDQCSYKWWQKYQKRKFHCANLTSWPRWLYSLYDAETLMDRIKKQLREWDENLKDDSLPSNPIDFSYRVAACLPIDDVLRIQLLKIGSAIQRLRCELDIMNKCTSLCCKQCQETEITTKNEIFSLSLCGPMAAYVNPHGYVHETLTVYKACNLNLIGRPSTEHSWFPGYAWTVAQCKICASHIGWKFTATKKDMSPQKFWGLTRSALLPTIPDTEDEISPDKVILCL

For `Cc1sc2c(c1C)C(c1ccc(Cl)cc1)=N[C@@H](CC(=O)Nc1ccc(OCCOCCOCCOCCNc3cc(OS(=O)(=O)F)cc4c3C(=O)N(C3CCC(=O)NC3=O)C4=O)cc1)c1nnc(C)n1-2` (stereo partly shown) [FS-ARV-825], the “% labelled (10 μM, 24 h)” value was ~ 50 % labelled (10 μM, 24 h).
